Values quoted from earlier work as cited in patent publication US6916809B2, “Heterocyclic acridone inhibitors of IMPDH enzyme” (Bristol-Myers Squibb Company, priority 2001, dated 2005).
Where two headings read alike, the source gives them in different places.

Key:
[1] = tested on: antigen-specific T lymphocyte responses; conditions: for synergistic effect with Rol on inhibition of antigen-induced proliferation: combined with Rol 10^-7 M; for % inhibition of proliferation: synergistic combination of rolipram and MPA; for approximate IC10: antigen-induced proliferation, Canelos et al. 2001
IMPDH types I and II = conditions: low and high concentrations
IL-2, IL-4, and IFN = conditions: Rol 10^-7 M, MPA 10^-8 M

## COc1c(C)c2c(c(O)c1C/C=C(\C)CCC(=O)O)C(=O)OC2 [MPA, mycophenolic acid]
[1]
  synergistic effect with Rol on inhibition of antigen-induced proliferation: marked synergistic effect
[1]; with deoxyguanosine (reversal), p<0.05
  % inhibition of proliferation: 35±12%
[1]; without deoxyguanosine
  % inhibition of proliferation: 81±16%
IMPDH types I and II
  gene expression for IMPDH types I and II: remained unaffected
IL-2, IL-4, and IFN
  downregulation in the generation of proinflammatory cytokines: no significant downregulation

## COc1ccc(C2CNC(=O)C2)cc1OC1CCCC1 (stereo not shown) [Rol, 4-[3-(cyclopentyloxy)-4-methoxy-phenyl]-2-pyrrolidinone]
[1]
  approximate IC10: ~10^−7 M
IMPDH types I and II
  gene expression for IMPDH types I and II: remained unaffected
IL-2, IL-4, and IFN
  downregulation in the generation of proinflammatory cytokines: no significant downregulation

## CCCC(=O)Nc1ncnc2c1ncn2[C@@H]1O[C@@H]2COP(=O)(O)O[C@H]2[C@H]1OC(=O)CCC [dibuteryl-cAMP]
[1]
  approximate IC10: ~2e-06 M

## C=CC[C@@H]1/C=C(\C)C[C@H](C)C[C@H](OC)[C@H]2O[C@@](O)(C(=O)C(=O)N3CCCC[C@H]3C(=O)O[C@H](/C(C)=C/[C@@H]3CC[C@@H](O)[C@H](OC)C3)[C@H](C)[C@@H](O)CC1=O)[C@H](C)C[C@@H]2OC [tacrolimus]
[1]
  synergistic effect with Rol on inhibition of antigen-induced proliferation: little or no synergistic effect
